Assay results reported in patent US9089539B2 (Indiana University Research and Technology Corporation, priority 2008, dated 2015).
Where a SMILES comes first, the peptide text is derived from it. Bridges are numbered along the chain shown (N, C = ends). Where no end group is shown, it is not given here. Side-chain parts run from the residue outwards. [ ]: non-standard residue; d: D form. The star is where a group is joined. Desaminohistidyl = O=C(CCc1c[nH]cn1)*; PLA = phenyl lactic acid; Aib = CC(C)(N)C(=O)O

Legend:
[1] = Cleavage of dipeptide-extended prodrugs on incubation in PBS (HPLC/MS); assay type: physicochemical
Protocol: Preliminary analyses were performed with these crude peptides to get an approximation of their relative conversion rates in Phosphate Buffered Saline (PBS) buffer (pH, 7.2) using high performance liquid chromatography (HPLC) and MALDI analysis. The crude peptide samples were dissolved in the PBS buffer at a concentration of 1 mg/ml. 1 ml of the resulting solution was stored in a 1.5 ml HPLC vial which was then sealed and incubated at 37° C. Aliquots of 100 μl were drawn out at various time intervals, cooled to room temperature and analyzed by HPLC.
HPLC analyses were performed on a 150 mm×4.6 mm C18 Vydac column. The flow rate was 1 ml/min. […] A linear gradient was employed (40% to 70% B in 15 minutes).
Each N-terminally extended peptide was incubated in PBS buffer at 37° C. for approximately a week. Alternatively, each peptide was heated for 120 min at 100° C. to accelerate the amide bond cleavage. Cleavage of the prodrugs was analyzed by reverse phase HPLC and MS.
To explore the possible formation of 2,5-diketopiperazine (DKP) or 2,5-diketomorpholine (DMP) and the simultaneous generation of HO-F^7,GLP(8-36)-CEX, the prodrug was incubated in PBS buffer at 37° C. for approximately a week. The peptide was also heated at 100° C. to determine the susceptibility to cleavage (Table 4).

GLP-1 receptor = target: T1, GLP-1 receptor (Homo sapiens, UniProt P43220); assay: Luciferase-based reporter gene assay for cAMP detection, GLP-1 receptor; assay type: cell-based
T1 construct: expressed in transfected cells; host or cells: HEK293

blood glucose [2] = assay: Glucose challenge in DIO mice after intraperitoneal peptide injection (Examples 5-7); assay type: in vivo; settings: 2 nmol/kg
Protocol: Six groups of diabetes-induced obesity (DIO) mice (eight mice per group) having an initial average body weight of 49.5 g were intraperitoneally injected with 2 nmol/kg of a PBS vehicle control or one of Peptides A-E described below:
(§1) Fifteen minutes after injection with one of the compounds or with vehicle control (at time point 0), a 25% (w/v) glucose saline solution was injected at a dose of 1.5 g per kg of body weight. Blood glucose concentrations of the mice were measured at the time of injection of the compound or vehicle control, at the time of glucose injection, and at 15, 30, 60, and 120 minutes after glucose injection.
Blood glucose levels of the mice were measured as described in Example 5.

[3] = Body weight and food intake of DIO mice over one week (Example 8); assay type: in vivo; settings: 15 or 70 nmol/kg; for total food intake: seven days after injection
Protocol: (§2) Nine groups of diabetes-induced obesity (DIO) mice (8 mice per group) having an initial average body weight of 56 g were intraperitoneally injected once and followed for one week with 15 or 70 nmol/kg of Peptides Y, Z, F-Peg, and G-Peg described below or PBS vehicle control.
The body weight of each mouse of each group was measured on 1, 3, 5, and 7 days after injection with the vehicle control or peptide. Total change in body weight was calculated by subtracting the average body weight of a group at the time of injection with vehicle or peptide from the average body weight of the group seven days after injection. Food intake by each group of mice was measured during the course of the week as well. Total food intake was measured seven days after injection with vehicle control or peptide. […] The Ser11 substitution or the des-amino His7 reduces total efficacy.

blood glucose [4] = assay: Glucose challenge in DIO mice after pegylated peptide injection (Example 8); assay type: in vivo; settings: 15 or 70 nmol/kg, glucose injected sixty minutes after peptide
Protocol: as §2
as §1, with “Sixty” for “Fifteen”, “peptides” for “compounds”, “peptide” for “compound”, “control (at time point −60),” for “control,”, “injection (at time point 0),” for “injection,”

T1 sequence (P43220 24-463, species assumed): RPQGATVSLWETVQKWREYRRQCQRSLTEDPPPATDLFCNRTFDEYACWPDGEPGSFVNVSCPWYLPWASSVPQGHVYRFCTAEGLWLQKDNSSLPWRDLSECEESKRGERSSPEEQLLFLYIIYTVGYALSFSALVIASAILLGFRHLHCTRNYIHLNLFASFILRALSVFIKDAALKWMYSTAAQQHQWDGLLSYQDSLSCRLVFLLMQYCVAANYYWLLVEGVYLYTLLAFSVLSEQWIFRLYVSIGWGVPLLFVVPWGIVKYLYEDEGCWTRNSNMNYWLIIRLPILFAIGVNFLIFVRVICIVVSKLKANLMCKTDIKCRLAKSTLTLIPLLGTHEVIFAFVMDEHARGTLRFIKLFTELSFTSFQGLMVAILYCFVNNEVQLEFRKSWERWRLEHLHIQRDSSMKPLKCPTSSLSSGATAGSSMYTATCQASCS

Row | Compound | blood glucose of prodrug form versus corresponding non-prodrug form (blood glucose [2]) | total food intake [3] | blood glucose concentrations versus vehicle control (blood glucose [4]) | further results
1 | 2 (FTSEYSKYLDERRAQDFVQWLMNTGPSSGAPPPS; lactam 7-11) [Peptide 2] |  |  |  | t1/2 ([1]; buffer): HO-Phe-dVal (t1/2 = 50.5 hrs)
2 | CC[C@H](C)[C@H](NC(=O)[C@H](Cc1ccccc1)NC(=O)[C@H](CCC(=O)O)NC(=O)[C@H](CCCCN)NC(=O)[C@H](C)NC(=O)[C@H](C)NC(=O)[C@H](CCC(N)=O)NC(=O)CNC(=O)[C@H](CCC(=O)O)NC(=O)[C@H](CC(C)C)NC(=O)[C@H](Cc1ccc(O)cc1)NC(=O)[C@H](CO)NC(=O)[C@H](CO)NC(=O)[C@@H](NC(=O)[C@H](CC(=O)O)NC(=O)[C@H](CO)NC(=O)[C@@H](NC(=O)[C@H](Cc1ccccc1)NC(=O)[C@H](COC(=O)CNC(=O)CN)NC(=O)CNC(=O)[C@H](CCC(N)=O)NC(=O)[C@H](C)NC(=O)[C@@H](N)Cc1ccccc1)[C@@H](C)O)C(C)C)C(=O)N[C@@H](C)C(=O)N[C@@H](Cc1c[nH]c2ccccc12)C(=O)N[C@@H](CC(C)C)C(=O)N[C@H](C(=O)N[C@@H](CCCCN)C(=O)NCC(=O)NCC(=O)N1CCC[C@H]1C(=O)N[C@@H](CO)C(=O)N[C@@H](CO)C(=O)NCC(=O)N[C@@H](C)C(=O)N1CCC[C@H]1C(=O)N1CCC[C@H]1C(=O)N1CCC[C@H]1C(=O)N[C@@H](CO)C(N)=O)C(C)C (H-FAQGS([Gly-Gly])FTSDVSSYLEGQAAKEFIAWLVKGGPSSGAPPPS-NH2; N-terminus and C-terminus assumed) |  |  |  | half-life ([1]; buffer, PBS pH 7.2, 37° C.): 2.7 h; prodrug converted to the active entity ([1]; in 5 hours, worked out from the half life ([…])): approximately 70%
3 | F^7,GLP(8-37): aa 7-37 of GLP-1 with the His at position 7 replaced with Phe (FAEGTFTSDVSSYLEGQAAKEFIAWLVKGRG; Glucagon-like peptide 1(7-37); UniProt P01275 98-128, looked up, variant H7F) |  |  |  | potency of native GLP-1 (GLP-1 receptor; relative to native GLP): 10%
4 | HAEGTFTSDVSSYLEGQAAKEFIAWLVKGRGKRNRNNIA (listed as Homo sapiens) [GLP-oxyntomodulin] |  |  |  | potency relative to native GLP-1 (GLP-1 receptor): at least as potent as the native GLP-1 peptide
5 | H^7AEGTFTSDVSSYLEGQAAKEFIAWLVKGXPSSGAPPPS-amide [GLP(7-36)-CEX amide] |  |  |  | potency relative to native GLP-1 (GLP-1 receptor): approximately ten times more potent in vitro than the native GLP-1 sequence
6 | Peptide A: prodrug of Peptide B, d-Phe-dPhe attached via the O-terminus; SEQ ID NO: 645 ({dF-dF-PLA}-[Aib]EGTFTSDVSSYLEEQAAKEFIAWLVKGRPSSGAPPPS-NH2; also: dF-PLA joined by ester bond) | higher than the blood glucose levels of mice injected with the corresponding non-prodrug forms of the peptides |  |  | 
7 | Peptide C: prodrug of Peptide B, d-Phe-d-Val attached via the O-terminus; SEQ ID NO: 647 ({dF-dV-PLA}-[Aib]EGTFTSDVSSYLEEQAAKEFIAWLVKGRPSSGAPPPS-NH2; also: dV-PLA joined by ester bond) | higher than the blood glucose levels of mice injected with the corresponding non-prodrug forms of the peptides |  |  | 
8 | Peptide E: prodrug of Peptide D, d-Phe-d-Val ester on Ser at position 11; SEQ ID NO: 649 (H[Aib]EGS([dV-dF])FTSDVSSYLEEQAAKEFIAWLVKGRPSSGAPPPS-NH2; N-terminus assumed; SMILES CC[C@H](C)[C@H](NC(=O)[C@H](Cc1ccccc1)NC(=O)[C@H](CCC(=O)O)NC(=O)[C@H](CCCCN)NC(=O)[C@H](C)NC(=O)[C@H](C)NC(=O)[C@H](CCC(N)=O)NC(=O)[C@H](CCC(=O)O)NC(=O)[C@H](CCC(=O)O)NC(=O)[C@H](CC(C)C)NC(=O)[C@H](Cc1ccc(O)cc1)NC(=O)[C@H](CO)NC(=O)[C@H](CO)NC(=O)[C@@H](NC(=O)[C@H](CC(=O)O)NC(=O)[C@H](CO)NC(=O)[C@@H](NC(=O)[C@H](Cc1ccccc1)NC(=O)[C@H](COC(=O)[C@H](NC(=O)[C@H](N)Cc1ccccc1)C(C)C)NC(=O)CNC(=O)[C@H](CCC(=O)O)NC(=O)C(C)(C)NC(=O)[C@@H](N)Cc1c[nH]cn1)[C@@H](C)O)C(C)C)C(=O)N[C@@H](C)C(=O)N[C@@H](Cc1c[nH]c2ccccc12)C(=O)N[C@@H](CC(C)C)C(=O)N[C@H](C(=O)N[C@@H](CCCCN)C(=O)NCC(=O)N[C@@H](CCCNC(=N)N)C(=O)N1CCC[C@H]1C(=O)N[C@@H](CO)C(=O)N[C@@H](CO)C(=O)NCC(=O)N[C@@H](C)C(=O)N1CCC[C@H]1C(=O)N1CCC[C@H]1C(=O)N1CCC[C@H]1C(=O)N[C@@H](CO)C(N)=O)C(C)C) | higher than the blood glucose levels of mice injected with the corresponding non-prodrug forms of the peptides |  |  | 
9 | Peptide F-Peg: Peptide F sequence with Cys at 30 linked to a 40 kDa PEG; SEQ ID NO: 655 ([Desaminohistidyl]SEGTFTSDVSSYLEEQAAKEFIC(PEG 40 kDa)WLVKGRPSSGAPPPS-NH2) |  | decreased | less as compared to the blood glucose levels of mice injected with vehicle control | total efficacy over a week study [3]: comparable
10 | Peptide G-Peg: pegylated prodrug, d-Phe-d-Val ester on Ser at position 8; SEQ ID NO: 656 ([Desaminohistidyl]S([dV-dF])EGTFTSDVSSYLEEQAAKEFIC(PEG 40 kDa)WLVKGRPSSGAPPPS-NH2) |  | decreased | less as compared to the blood glucose levels of mice injected with vehicle control | total efficacy over a week study [3]: comparable
11 | Peptide G: prodrug of Peptide F, d-Phe-dVal ester on Ser at position 2 of Peptide F; SEQ ID NO: 651 ([Desaminohistidyl]S([dV-dF])EGTFTSDVSSYLEEQAAKEFIAWLVKGRPSSGAPPPS-NH2; SMILES CC[C@H](C)[C@H](NC(=O)[C@H](Cc1ccccc1)NC(=O)[C@H](CCC(=O)O)NC(=O)[C@H](CCCCN)NC(=O)[C@H](C)NC(=O)[C@H](C)NC(=O)[C@H](CCC(N)=O)NC(=O)[C@H](CCC(=O)O)NC(=O)[C@H](CCC(=O)O)NC(=O)[C@H](CC(C)C)NC(=O)[C@H](Cc1ccc(O)cc1)NC(=O)[C@H](CO)NC(=O)[C@H](CO)NC(=O)[C@@H](NC(=O)[C@H](CC(=O)O)NC(=O)[C@H](CO)NC(=O)[C@@H](NC(=O)[C@H](Cc1ccccc1)NC(=O)[C@@H](NC(=O)CNC(=O)[C@H](CCC(=O)O)NC(=O)[C@H](COC(=O)[C@H](NC(=O)[C@H](N)Cc1ccccc1)C(C)C)NC(=O)CCc1c[nH]cn1)[C@@H](C)O)[C@@H](C)O)C(C)C)C(=O)N[C@@H](C)C(=O)N[C@@H](Cc1c[nH]c2ccccc12)C(=O)N[C@@H](CC(C)C)C(=O)N[C@H](C(=O)N[C@@H](CCCCN)C(=O)NCC(=O)N[C@@H](CCCNC(=N)N)C(=O)N1CCC[C@H]1C(=O)N[C@@H](CO)C(=O)N[C@@H](CO)C(=O)NCC(=O)N[C@@H](C)C(=O)N1CCC[C@H]1C(=O)N1CCC[C@H]1C(=O)N1CCC[C@H]1C(=O)N[C@@H](CO)C(N)=O)C(C)C) | higher than the blood glucose levels of mice injected with its corresponding non-prodrug form |  |  | 
12 | Peptide Y: GLP-1-based peptide with Cys at 30 linked to a 40 kDa PEG; SEQ ID NO: 653 (H[Aib]EGTFTSDVSSYLEEQAAKEFIC(PEG 40 kDa)WLVKGRPSSGAPPPS-NH2) |  | decreased | less as compared to the blood glucose levels of mice injected with vehicle control | potency in decreasing appetite and decreasing body weight ([3]; one week): most potent of the four peptides in decreasing appetite and decreasing body weight
13 | Peptide Z: pegylated prodrug, d-Phe-d-Val ester on Ser at position 11; SEQ ID NO: 654 (H[Aib]EGS([dV-dF])FTSDVSSYLEEQAAKEFIC(PEG 40 kDa)WLVKGRPSSGAPPPS-NH2) |  | decreased | less as compared to the blood glucose levels of mice injected with vehicle control | 
